The test system of data set [1] is NO production in LPS-stimulated RAW264.7 cells. The data set can be described thus: Inhibition of nitric oxide (NO) production in LPS-stimulated RAW264.7 cells (Griess reagent). It is filed as cell-based. The note with it: Mus musculus, 1 μg/mL LPS, 24 h, read-out: IC50 value, NO production inhibitory effect.
Description: (§1) RAW264.7 cells were cultured in Dulbecco’s modified essential medium (DMEM, Gibco). The cells were incubated at 37 °C in DMEM with 10% fetal bovine serum (FBS, Gibco), penicillin (100 U/mL, Gibco), and streptomycin sulfate (100 μg/mL, Gibco) under a humidified atmosphere containing 5% CO2. Briefly, 2 × 10^4 cells/well treated for 24 h with vehicle or compounds were examined for cell viability based on the MTT (3-(4,5-dimethylthiazol-2-yl)-2,5-diphenyltetrazolium bromide assay) method.[60] Survival of macrophage cells after treatment with compounds was measured at a wavelength of 570 nm.
(§2) RAW264.7 cells (2 × 10^4 cells/well) were stimulated with or without 1 μg/mL lipopolysaccharide (LPS, Sigma) for 24 h in the presence or absence of the test compounds at different concentrations. Afterward, 100 μL of the cell culture supernatant was mixed with 100 μL of Griess reagent.[61] The remaining cells from the Griess assay were then utilized to determine their viability by using the MTT colorimetric assay described above.
Data set [2] in a line: in vitro. The note with it: human.
Description: Human hepatocellular carcinoma HepG2 cells were cultured in DMEM (Gibco) supplemented with 10% FBS (Gibco) and 1% antibiotic–antimycotic (Gibco, 15240062). Once cells reached approximately 80% confluence, they were washed with PBS and detached using trypsin-EDTA (Gibco, 25200072) at 37 °C for 5 min. Cells were then seeded into 96-well plates at a density of 3 × 10^4 cells per well (100 μL/well) and incubated for 24 h at 37 °C in a humidified atmosphere with 5% CO2.
After the initial incubation, the medium was replaced with 100 μL of fresh medium containing the test compounds, and the cells were incubated for an additional 48 h. Cell viability was determined using the MTT assay, following standard protocols with untreated cells serving as the control. The percentage of cell viability was calculated using the following formula: % viability = [(number of viable cells)/(total cells)] × 100. The concentration of the test compounds was set at 80 μM for the screening.
Data set [3] is described as follows: in vitro.
Description: as §1, §2

Like-named read-outs stand apart in the source and are kept apart here. Bounds are passed on as bounds.

In the case of `C=C[C@H]1[C@H](O[C@@H]2O[C@H](CO)[C@@H](O)[C@H](O)[C@H]2O)OC=C2C(=O)OCC[C@H]21` [Compound 13, sweroside], the IC50 in data set [1] was determined as 36 ± 1.6 µM. For the same compound, the viability at 48 h, 80 µM in the data set “in vitro [2]” is > 80%; in “in vitro [3]”, 94.7 ± 4.2%.
